Test results published in ChEMBL document CHEMBL1134980, “Structure-activity relationships for a series of thiobenzamide influenza fusion inhibitors derived from 1,3,3-trimethyl-5-hydroxy-cyclohexylmethylamine” (Bioorg Med Chem Lett, 2002).
Values after ≈ are worked out from the molar mass of the structure shown.

Experiments:
[1] = system: MDCK; experiment: The concentration causing a 50% reduction in cell viability in the absence of influenza infection on MDCK cells in cell protection assay.; type: functional; details: Canis lupus familiaris
[2] = system: Influenza A virus; experiment: Anti-influenza activity on A/WSN/33 (H1N1 subtype) strain of influenza virus infected on MDCK cells in cell protection assay.; type: functional, organism-based

Compound Cc1ccc(O)c(C(=O)NC[C@@]2(C)C[C@@H](O)CC(C)(C)C2)c1 has a CC50 [1] of 50 µg/mL (≈ 164 µM), an EC50 [2] of 0.03 µg/mL (≈ 0.0982 µM) and an IC50 [2] of 0.039 µg/mL (≈ 0.128 µM).
Compound CC1(C)C[C@H](O)C[C@](C)(C/N=C(\S)c2ccccc2O)C1 has a CC50 [1] of 40 µg/mL (≈ 130 µM), an EC50 [2] of 4.5 µg/mL (≈ 14.6 µM) and an IC50 [2] of 2.4 µg/mL (≈ 7.81 µM).
With Cc1ccc(C)c(/C(S)=N/C[C@@]2(C)C[C@@H](O)CC(C)(C)C2)c1 the CC50 [1] was 30 µg/mL (≈ 93.9 µM), the EC50 [2] was “Not Active” and the IC50 [2] was 1.5 µg/mL (≈ 4.69 µM).
For CC1(C)C[C@@H](O)C[C@](C)(CNC(=O)c2cc(Cl)ccc2O)C1, the CC50 [1] was greater than 100 µg/mL, the EC50 [2] was 0.2 µg/mL (≈ 0.614 µM) and the IC50 [2] was 0.15 µg/mL (≈ 0.46 µM).
With Cc1cccc(/C(S)=N/C[C@@]2(C)C[C@@H](O)CC(C)(C)C2)c1 the CC50 [1] was 20 µg/mL (≈ 65.5 µM), the EC50 [2] was “Not Active” and the IC50 [2] was 7.5 µg/mL (≈ 24.6 µM).
In the case of Cc1cc(C)cc(/C(S)=N/C[C@@]2(C)C[C@H](O)CC(C)(C)C2)c1, the CC50 [1] is reported as 18 µg/mL (≈ 56.3 µM), the EC50 [2] is reported as 0.03 µg/mL (≈ 0.0939 µM) and the IC50 [2] is reported as 0.52 µg/mL (≈ 1.63 µM).
For Cc1cccc(/C(S)=N/C[C@@]2(C)C[C@H](O)CC(C)(C)C2)c1, the CC50 [1] was 35 µg/mL (≈ 115 µM), the EC50 [2] was 0.015 µg/mL (≈ 0.0491 µM) and the IC50 [2] was 0.03 µg/mL (≈ 0.0982 µM).
In the case of CC1(C)C[C@H](O)C[C@](C)(C/N=C(\S)c2cccc(Cl)c2)C1, the CC50 [1] is reported as 8.5 µg/mL (≈ 26.1 µM), the EC50 [2] is reported as “Not Active” and the IC50 [2] is reported as 2.5 µg/mL (≈ 7.67 µM).
In the case of CC1(C)C[C@@H](O)C[C@](C)(C/N=C(\S)c2cccc(Cl)c2)C1, the CC50 [1] is reported as 20 µg/mL (≈ 61.4 µM), the EC50 [2] is reported as 0.02 µg/mL (≈ 0.0614 µM) and the IC50 [2] is reported as 0.047 µg/mL (≈ 0.144 µM).
CC1(C)C[C@@H](O)C[C@](C)(C/N=C(\S)c2cccc(F)c2)C1 showed a CC50 [1] of 70 µg/mL (≈ 226 µM), an EC50 [2] of 0.038 µg/mL (≈ 0.123 µM) and an IC50 [2] of 0.19 µg/mL (≈ 0.614 µM).
Cc1ccc(O)c(/C(S)=N/C[C@@]2(C)C[C@@H](O)CC(C)(C)C2)c1 was tested, and the CC50 [1] was 15 µg/mL (≈ 46.7 µM), the EC50 [2] was 0.4 µg/mL (≈ 1.24 µM) and the IC50 [2] was 0.16 µg/mL (≈ 0.498 µM).
Compound Cc1ccccc1/C(S)=N/C[C@@]1(C)C[C@H](O)CC(C)(C)C1 has a CC50 [1] of 70 µg/mL (≈ 229 µM), an EC50 [2] of 0.065 µg/mL (≈ 0.213 µM) and an IC50 [2] of 0.14 µg/mL (≈ 0.458 µM).
For CC1(C)C[C@H](O)C[C@](C)(C/N=C(\S)c2cccc(F)c2)C1, the CC50 [1] was 20 µg/mL (≈ 64.6 µM), the EC50 [2] was “Not Active” and the IC50 [2] was 5 µg/mL (≈ 16.2 µM).
For CC1(C)C[C@H](O)C[C@](C)(C/N=C(\S)c2ccccc2)C1, the CC50 [1] was 50 µg/mL (≈ 172 µM), the EC50 [2] was “Not Active” and the IC50 [2] was 3.5 µg/mL (≈ 12 µM).
Compound CC1(C)C[C@@H](O)C[C@](C)(C/N=C(\S)c2cc(Cl)ccc2O)C1 has a CC50 [1] of 4 µg/mL (≈ 11.7 µM), an EC50 [2] of 1.8 µg/mL (≈ 5.26 µM) and an IC50 [2] of 1 µg/mL (≈ 2.92 µM).
Compound CC1(C)C[C@H](O)C[C@](C)(CNC(=O)c2cc(Cl)ccc2O)C1 has a CC50 [1] of 80 µg/mL (≈ 246 µM), an EC50 [2] of 0.06 µg/mL (≈ 0.184 µM) and an IC50 [2] of 0.025 µg/mL (≈ 0.0767 µM).
In the case of CC1(C)C[C@H](O)C[C@](C)(C/N=C(\S)c2cccc(C(F)(F)F)c2)C1, the CC50 [1] is reported as 5 µg/mL (≈ 13.9 µM), the EC50 [2] is reported as “Not Active” and the IC50 [2] is reported as 23 µg/mL (≈ 64 µM).
Cc1ccccc1/C(S)=N/C[C@@]1(C)C[C@@H](O)CC(C)(C)C1 was tested, and the CC50 [1] was 2 µg/mL (≈ 6.55 µM), the EC50 [2] was “Not Active” and the IC50 [2] was 2.4 µg/mL (≈ 7.86 µM).
CC1(C)C[C@@H](O)C[C@](C)(C/N=C(\S)c2ccccc2O)C1 was tested, and the CC50 [1] was 40 µg/mL (≈ 130 µM), the EC50 [2] was 2 µg/mL (≈ 6.5 µM) and the IC50 [2] was 2.4 µg/mL (≈ 7.81 µM).
With CC1(C)C[C@@H](O)C[C@](C)(C/N=C(\S)c2cccc(C#N)c2)C1 the CC50 [1] was 22 µg/mL (≈ 69.5 µM), the EC50 [2] was 2.5 µg/mL (≈ 7.9 µM) and the IC50 [2] was “Not Active”.
CC1(C)C[C@@H](O)C[C@](C)(C/N=C(\S)c2ccccc2)C1 was tested, and the CC50 [1] was 10 µg/mL (≈ 34.3 µM), the EC50 [2] was 0.05 µg/mL (≈ 0.172 µM) and the IC50 [2] was 0.15 µg/mL (≈ 0.515 µM).
In the case of COc1ccccc1/C(S)=N/C[C@@]1(C)C[C@@H](O)CC(C)(C)C1, the CC50 [1] is reported as 45 µg/mL (≈ 140 µM), the EC50 [2] is reported as “Not Active” and the IC50 [2] is reported as “Not Active”.
Cc1ccc(O)c(/C(S)=N/C[C@@]2(C)C[C@H](O)CC(C)(C)C2)c1 showed a CC50 [1] of 20 µg/mL (≈ 62.2 µM), an EC50 [2] of 0.5 µg/mL (≈ 1.56 µM) and an IC50 [2] of 0.33 µg/mL (≈ 1.03 µM).
For Cc1cc(C)cc(/C(S)=N/C[C@@]2(C)C[C@@H](O)CC(C)(C)C2)c1, the CC50 [1] was 40 µg/mL (≈ 125 µM), the EC50 [2] was “Not Active” and the IC50 [2] was 0.5 µg/mL (≈ 1.56 µM).
Work on Cc1ccc(C)c(/C(S)=N/C[C@@]2(C)C[C@H](O)CC(C)(C)C2)c1 yielded a CC50 [1] of 45 µg/mL (≈ 141 µM), an EC50 [2] of 0.023 µg/mL (≈ 0.072 µM) and an IC50 [2] of 0.08 µg/mL (≈ 0.25 µM).
Compound Cc1ccc(/C(S)=N/C[C@@]2(C)C[C@H](O)CC(C)(C)C2)c(C)c1 has a CC50 [1] of 35 µg/mL (≈ 110 µM), an EC50 [2] of 0.15 µg/mL (≈ 0.469 µM) and an IC50 [2] of 0.45 µg/mL (≈ 1.41 µM).
For CC1(C)C[C@@H](O)C[C@](C)(C/N=C(\S)c2cccc(C(F)(F)F)c2)C1, the CC50 [1] was 15 µg/mL (≈ 41.7 µM), the EC50 [2] was 0.09 µg/mL (≈ 0.25 µM) and the IC50 [2] was 0.3 µg/mL (≈ 0.835 µM).
Cc1ccc(/C(S)=N/C[C@@]2(C)C[C@@H](O)CC(C)(C)C2)cc1 was tested, and the CC50 [1] was 25 µg/mL (≈ 81.8 µM), the EC50 [2] was “Not Active” and the IC50 [2] was “Not Active”.
Work on CC1(C)C[C@@H](O)C[C@](C)(CNC(=O)Nc2ccccc2Cl)C1 yielded an IC50 [2] of 0.1 µg/mL (≈ 0.308 µM).
COc1ccccc1/C(S)=N/C[C@@]1(C)C[C@H](O)CC(C)(C)C1 gave a CC50 [1] of 43 µg/mL (≈ 134 µM), an EC50 [2] of 1 µg/mL (≈ 3.11 µM) and an IC50 [2] of 0.5 µg/mL (≈ 1.56 µM).
With Cc1ccc(/C(S)=N/C[C@@]2(C)C[C@@H](O)CC(C)(C)C2)c(C)c1 the CC50 [1] was 30 µg/mL (≈ 93.9 µM), the EC50 [2] was “Not Active” and the IC50 [2] was “Not Active”.
In the case of CC1(C)C[C@@H](O)C[C@](C)(C/N=C(\S)c2cccc([N+](=O)[O-])c2)C1, the CC50 [1] is reported as 15 µg/mL (≈ 44.6 µM), the EC50 [2] is reported as “Not Active” and the IC50 [2] is reported as 1.8 µg/mL (≈ 5.35 µM).
For CC1(C)C[C@@H](O)C[C@](C)(CNC(=O)c2ccccc2O)C1, the CC50 [1] was 90 µg/mL (≈ 309 µM).
Compound Cc1ccc(O)c(C(=O)NC[C@@]2(C)C[C@H](O)CC(C)(C)C2)c1 has a CC50 [1] of 70 µg/mL (≈ 229 µM), an EC50 [2] of 0.15 µg/mL (≈ 0.491 µM) and an IC50 [2] of 0.015 µg/mL (≈ 0.0491 µM).
With Cc1ccc(/C(S)=N/C[C@@]2(C)C[C@H](O)CC(C)(C)C2)cc1 the CC50 [1] was 40 µg/mL (≈ 131 µM), the EC50 [2] was “Not Active” and the IC50 [2] was 7 µg/mL (≈ 22.9 µM).
Compound CC1(C)C[C@H](O)C[C@](C)(C/N=C(\S)c2cc(Cl)ccc2O)C1 has a CC50 [1] of 5.5 µg/mL (≈ 16.1 µM), an EC50 [2] of 0.9 µg/mL (≈ 2.63 µM) and an IC50 [2] of 2.8 µg/mL (≈ 8.19 µM).
CC1(C)C[C@H](O)C[C@](C)(CNC(=O)Nc2ccccc2Cl)C1 (relative stereo) showed an IC50 [2] of 0.1 µg/mL (≈ 0.308 µM).
For COC(=O)c1cccc(/C(S)=N/C[C@@]2(C)C[C@H](O)CC(C)(C)C2)c1, the CC50 [1] was 50 µg/mL (≈ 143 µM), the EC50 [2] was “Not Active” and the IC50 [2] was “Not Active”.
Work on CC1(C)C[C@H](O)C[C@](C)(CNC(=O)c2ccccc2O)C1 yielded a CC50 [1] of 70 µg/mL (≈ 240 µM).
